Read-outs that look alike come from different tables or passages of the source.
Molecular target: T1, USP7 (Homo sapiens, UniProt Q93009)
T1 construct: The USP7 construct was PCR amplified and cloned into a pFLAG-CMV-6a vector (Sigma-Aldrich) with an N-terminal FLAG tag; made in house; host or cells: HEK293T
Assay: USP7 biochemical IC50 assay (fluorescence polarisation, TAMRA labelled peptide linked to ubiquitin via an iso-peptide bond)
Conditions: 30 min pre-incubation of enzyme and compound, read after 2 hr incubation at room temperature
In short: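 Fluorescence polarisation at 540 nm excitation/590 nm emission, read immediately and after 2 hr at room temperature, following addition of 50 nM TAMRA-labelled iso-peptide ubiquitin substrate.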

T1 sequence (Q93009 whole entry): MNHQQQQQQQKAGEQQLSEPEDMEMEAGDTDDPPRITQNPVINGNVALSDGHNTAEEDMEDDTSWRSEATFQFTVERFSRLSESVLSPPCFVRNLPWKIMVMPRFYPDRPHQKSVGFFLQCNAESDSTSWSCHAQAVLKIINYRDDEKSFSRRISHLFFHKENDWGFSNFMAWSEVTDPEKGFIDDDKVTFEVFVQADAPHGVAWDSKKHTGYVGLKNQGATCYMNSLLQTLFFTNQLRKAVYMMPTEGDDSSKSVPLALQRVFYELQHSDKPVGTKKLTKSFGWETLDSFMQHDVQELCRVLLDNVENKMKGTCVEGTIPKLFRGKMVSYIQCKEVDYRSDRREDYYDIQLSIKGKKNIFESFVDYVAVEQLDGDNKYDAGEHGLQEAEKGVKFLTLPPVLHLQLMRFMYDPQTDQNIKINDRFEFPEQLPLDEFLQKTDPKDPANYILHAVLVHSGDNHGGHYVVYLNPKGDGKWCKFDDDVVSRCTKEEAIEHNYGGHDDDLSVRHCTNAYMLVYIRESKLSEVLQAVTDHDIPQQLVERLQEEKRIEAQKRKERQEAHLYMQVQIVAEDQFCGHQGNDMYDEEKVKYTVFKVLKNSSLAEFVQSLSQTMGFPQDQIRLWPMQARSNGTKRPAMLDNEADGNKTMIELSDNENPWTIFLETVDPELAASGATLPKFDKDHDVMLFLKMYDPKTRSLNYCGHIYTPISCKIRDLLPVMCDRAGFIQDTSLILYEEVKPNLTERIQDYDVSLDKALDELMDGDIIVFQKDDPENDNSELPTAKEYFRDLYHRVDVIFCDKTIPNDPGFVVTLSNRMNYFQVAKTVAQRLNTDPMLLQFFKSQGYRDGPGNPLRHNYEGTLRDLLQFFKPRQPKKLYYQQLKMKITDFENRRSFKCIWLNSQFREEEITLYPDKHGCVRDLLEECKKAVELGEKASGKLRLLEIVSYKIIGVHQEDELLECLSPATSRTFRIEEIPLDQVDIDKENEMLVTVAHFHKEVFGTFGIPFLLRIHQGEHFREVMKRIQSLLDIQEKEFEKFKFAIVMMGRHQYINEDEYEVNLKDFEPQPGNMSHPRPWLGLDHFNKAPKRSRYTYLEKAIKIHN

Q: `N#CN1Cc2nc(NCc3cncs3)nc(-c3ccccc3)c2C1` [Example 119, 4-phenyl-2-((thiazol-5-ylmethyl)amino)-5,7-dihydro-6H-pyrrolo[3,4-d]pyrimidine-6-carbonitrile] was tested. Which IC50 (read-out: IC50 range) did it give?
A: 1 to 10 µM

Q: How did the IC50 (read-out: IC50 range) turn out when `COc1ccc(-c2cccc3c2CN(C#N)C3)c(C#N)c1` [Example 171, 4-(2-cyano-4-methoxyphenyl)isoindoline-2-carbonitrile] was run?
A: 1 to 10 µM

Q: `CC(=O)NCc1cc2c(c(-c3ccc(C#N)cc3)c1)CN(C#N)C2` [Example 217, N-((2-cyano-7-(4-cyanophenyl)isoindolin-5-yl)methyl)acetamide] was tested. Which IC50 (read-out: IC50 range) did it give?
A: 1 to 10 µM

Q: For `CC(NC(=O)c1cccc(-c2cccc3c2CN(C#N)C3)c1)c1ccccc1` (stereo not drawn) [Example 74, 3-(2-cyanoisoindolin-4-yl)-N-(1-phenylethyl)benzamide], which IC50 (read-out: IC50 range) is on record?
A: 1 to 10 µM

Q: `CNC(=O)c1cc2c(c(-c3ccc(F)cc3)c1)CN(C#N)C2` [Example 240, 2-cyano-7-(4-fluorophenyl)-N-methylisoindoline-5-carboxamide] was tested. Which IC50 (read-out: IC50 range) did it give?
A: < 1 µM

Q: How did the IC50 (read-out: IC50 range) turn out when `Cn1cc(-c2cccc3c2CN(C#N)C3)cn1` [Example 7, 4-(1-methyl-1H-pyrazol-4-yl)isoindoline-2-carbonitrile] was run?
A: 1 to 10 µM

Q: How did the IC50 (read-out: IC50 range) turn out when `CS(=O)(=O)c1ccccc1-c1cccc2c1CN(C#N)C2` [Example 162, 4-(2-(methylsulfonyl)phenyl)isoindoline-2-carbonitrile] was run?
A: 1 to 10 µM

Q: With `N#CN1Cc2nc(NCC3CCOCC3)cc(-c3ccc(F)cc3)c2C1` [Example 246, 4-(4-fluorophenyl)-2-(((tetrahydro-2H-pyran-4-yl)methyl)amino)-5,7-dihydro-6H-pyrrolo[3,4-b]pyridine-6-carbonitrile] as the compound, how does the IC50 (read-out: IC50 range) read?
A: 1 to 10 µM

Q: Which IC50 (read-out: IC50 range) does the source give for `N#CN1Cc2ncnc(N3CCC(Oc4ccccc4C(N)=O)CC3)c2C1` [Example 103, 2-((1-(6-cyano-6,7-dihydro-5H-pyrrolo[3,4-d]pyrimidin-4-yl)piperidin-4-yl)oxy)benzamide] here?
A: 10 to 30 µM

Q: `Cc1cc(C#N)cc(C)c1-c1cccc2c1CN(C#N)C2` [Example 67, 4-(4-cyano-2,6-dimethylphenyl)isoindoline-2-carbonitrile] was tested. Which IC50 (read-out: IC50 range) did it give?
A: 1 to 10 µM

Q: Which IC50 (read-out: IC50 range) does the source give for `N#CN1Cc2nc(-c3ccccc3)nc(NCC(N)=O)c2C1` [Example 132, 2-((6-cyano-2-phenyl-6,7-dihydro-5H-pyrrolo[3,4-d]pyrimidin-4-yl)amino)acetamide] here?
A: 10 to 30 µM

Q: `N#Cc1cccc(F)c1-c1cccc2c1CN(C#N)C2` [Example 168, 4-(2-cyano-6-fluorophenyl)isoindoline-2-carbonitrile] was tested. Which IC50 (read-out: IC50 range) did it give?
A: 1 to 10 µM

Q: `CC(=O)Nc1cccc(-c2nc(NCC3CN(C)CCO3)nc3c2CN(C#N)C3)c1` (stereo not drawn) [Example 195, N-(3-(6-cyano-2-(((4-methylmorpholin-2-yl)methyl)amino)-6,7-dihydro-5H-pyrrolo[3,4-d]pyrimidin-4-yl)phenyl)acetamide] was tested. Which IC50 (read-out: IC50 range) did it give?
A: 1 to 10 µM

Q: For `N#CN1Cc2cccc(C(=O)NCc3ccccc3)c2C1` [Example 95, N-benzyl-2-cyanoisoindoline-4-carboxamide], which IC50 (read-out: IC50 range) is on record?
A: 10 to 30 µM

Q: With `N#Cc1ccc(-c2cc(N3CCS(=O)(=O)CC3)cc3c2CN(C#N)C3)cc1` [Example 278, 4-(4-cyanophenyl)-6-(1,1-dioxidothiomorpholino)isoindoline-2-carbonitrile] as the compound, how does the IC50 (read-out: IC50 range) read?
A: 1 to 10 µM

Q: How did the IC50 (read-out: IC50 range) turn out when `CC(=O)Nc1nc2c(c(-c3cccc(NS(C)(=O)=O)c3)n1)CN(C#N)C2` [Example 109, N-(6-cyano-4-(3-(methylsulfonamido)phenyl)-6,7-dihydro-5H-pyrrolo[3,4-d]pyrimidin-2-yl)acetamide] was run?
A: 1 to 10 µM

Q: Which IC50 (read-out: IC50 range) does the source give for `COC(C)(O)CNc1cc2c(c(-c3ccc(C#N)cc3)c1)CN(C#N)C2` (stereo not drawn) [Example 288, 4-(4-cyanophenyl)-6-((2-hydroxy-2-methoxypropyl)amino)iso-indoline-2-carbonitrile] here?
A: 1 to 10 µM

Q: `N#CN1Cc2cccc(NC(=O)c3ccc(=O)n(Cc4ccccc4)c3)c2C1` [Example 87, 1-benzyl-N-(2-cyanoisoindolin-4-yl)-6-oxo-1,6-dihydropyridine-3-carboxamide] was tested. Which IC50 (read-out: IC50 range) did it give?
A: 1 to 10 µM

Q: `N#CN1Cc2ncnc(N3Cc4ccccc4C3)c2C1` [Example 100, 4-(isoindolin-2-yl)-5,7-dihydro-6H-pyrrolo[3,4-c]pyrimidine-6-carbonitrile] was tested. Which IC50 (read-out: IC50 range) did it give?
A: 1 to 10 µM

Q: With `N#Cc1ccc(-c2cccc3c2CN(C#N)C3)c(Cl)c1` [Example 65, 4-(2-chloro-4-cyanophenyl)isoindoline-2-carbonitrile] as the compound, how does the IC50 (read-out: IC50 range) read?
A: 1 to 10 µM

Q: For `COCCc1cc2c(c(-c3ccccc3C(N)=O)c1)CN(C#N)C2` [Example 255, 2-(2-cyano-6-(2-methoxyethyl)isoindolin-4-yl)benzamide], which IC50 (read-out: IC50 range) is on record?
A: 1 to 10 µM

Q: How did the IC50 (read-out: IC50 range) turn out when `N#CN1Cc2cc(NC(=O)CCc3cccnc3)cc(-c3ccccc3)c2C1` [Example 41, N-(2-cyano-7-phenylisoindolin-5-yl)-3-(pyridin-3-yl)propanamide] was run?
A: 1 to 10 µM

Q: How did the IC50 (read-out: IC50 range) turn out when `Cc1cc(-c2cccc3c2CN(C#N)C3)c(C(N)=O)cc1C#N` [Example 156, 5-cyano-2-(2-cyanoisoindolin-4-yl)-4-methylbenzamide] was run?
A: 1 to 10 µM

Q: How did the IC50 (read-out: IC50 range) turn out when `CS(=O)(=O)Nc1cc2c(c(-c3ccccc3C#N)c1)CN(C#N)C2` [Example 242, N-(2-cyano-7-(2-cyanophenyl)isoindolin-5-yl)methanesulfonamide] was run?
A: 1 to 10 µM

Q: `Cc1ccccc1-c1nc2c(c(N3CCCC3C(N)=O)n1)CN(C#N)C2` (stereo not drawn) [Example 143, 1-(6-cyano-2-(o-tolyl)-6,7-dihydro-5H-pyrrolo[3,4-d]pyrimidin-4-yl)pyrrolidine-2-carboxamide] was tested. Which IC50 (read-out: IC50 range) did it give?
A: 10 to 30 µM

Q: `CC(=O)Nc1nc2c(c(-c3ccc(F)cc3)n1)CN(C#N)C2` [Example 187, N-(6-cyano-4-(4-fluorophenyl)-6,7-dihydro-5H-pyrrolo[3,4-c]pyrimidin-2-yl)acetamide] was tested. Which IC50 (read-out: IC50 range) did it give?
A: 1 to 10 µM

Q: Which IC50 (read-out: IC50 range) does the source give for `CC(=O)Nc1cccc(-c2nc(NC(C)=O)nc3c2CN(C#N)C3)c1` [Example 108, N-(3-(2-acetamido-6-cyano-6,7-dihydro-5H-pyrrolo[3,4-d]pyrimidin-4-yl)phenyl)acetamide] here?
A: 1 to 10 µM

Q: Which IC50 (read-out: IC50 range) does the source give for `N#Cc1ccc(-c2cccc3c2CN(C#N)C3)c(C(N)=O)c1` [Example 1, 5-cyano-2-(2-cyanoisoindolin-4-yl)benzamide] here?
A: 1 to 10 µM

Q: `N#CN1Cc2nc(Cl)nc(-c3ccccc3F)c2C1` [Example 150, 2-chloro-4-(2-fluorophenyl)-5,7-dihydro-6H-pyrrolo[3,4-d]pyrimidine-6-carbonitrile] was tested. Which IC50 (read-out: IC50 range) did it give?
A: 30 to 100 µM

Q: With `N#CN1Cc2cccc(NC(=O)c3cccc(NC(=O)C4CC4)c3)c2C1` [Example 80, N-(2-cyanoisoindolin-4-yl)-3-(cyclopropanecarboxamido)benzamide] as the compound, how does the IC50 (read-out: IC50 range) read?
A: 1 to 10 µM

Q: With `CNC(=O)NCc1cc2c(c(-c3ccc(C#N)cc3C#N)c1)CN(C#N)C2` [Example 228, 1-((2-cyano-7-(2,4-dicyanophenyl)isoindolin-5-yl)methyl)-3-methylurea] as the compound, how does the IC50 (read-out: IC50 range) read?
A: 1 to 10 µM

Q: Which IC50 (IC50 range) does the source give for `N#CN1Cc2ncnc(N3CCC(OCc4ccccc4)CC3)c2C1` [Example 185, 4-(4-(benzyloxy)piperidin-1-yl)-5,7-dihydro-6H-pyrrolo[3,4-d]pyriimidine-6-carbonitrile] here?
A: 10 to 30 µM

Q: Which IC50 (read-out: IC50 range) does the source give for `CCNc1cc2c(c(-c3ccc(C#N)cc3)c1)CN(C#N)C2` [Example 277, 4-(4-cyanophenyl)-6-(ethylamino)isoindoline-2-carbonitrile] here?
A: 1 to 10 µM

Q: For `CC(C)Nc1cc2c(c(-c3ccc(C#N)cc3)c1)CN(C#N)C2` [Example 272, 4-(4-cyanophenyl)-6-(isopropylamino)isoindoline-2-carbonitrile], which IC50 (read-out: IC50 range) is on record?
A: 1 to 10 µM

Q: `N#Cc1cc(-c2cn[nH]c2)ccc1-c1cccc2c1CN(C#N)C2` [Example 294, 4-(2-cyano-4-(1H-pyrazol-4-yl)phenyl)isoindoline-2-carbonitrile] was tested. Which IC50 (read-out: IC50 range) did it give?
A: 1 to 10 µM

Q: Which IC50 (read-out: IC50 range) does the source give for `CN1CCC(C(=O)Nc2cc3c(c(-c4ccccc4)c2)CN(C#N)C3)C1` (stereo not drawn) [Example 43, N-(2-cyano-7-phenyl-isoindolin-5-yl)-1-methylpyrrolidine-3-carboxamide] here?
A: 30 to 100 µM

Q: `Cn1cc(-c2nc3c(c(N4CCc5ccccc5C4)n2)CN(C#N)C3)cn1` [Example 142, 4-(3,4-dihydroisoquinolin-2(1H)-yl)-2-(1-methyl-1H-pyrazol-4-yl)-5,7-dihydro-6H-pyrrolo[3,4-d]pyrimidine-6-carbonitrile] was tested. Which IC50 (read-out: IC50 range) did it give?
A: 1 to 10 µM

Q: Which IC50 (read-out: IC50 range) does the source give for `N#Cc1ccc(-c2cc(NC3CCS(=O)(=O)CC3)cc3c2CN(C#N)C3)cc1` [Example 273, 4-(4-cyanophenyl)-6-((1,1-dioxidotetrahydro-2H-thiopyran-4-yl)amino)isoindoline-2-carbonitrile] here?
A: 1 to 10 µM

Q: With `N#CN1Cc2nccc(-c3cccc(Cl)c3)c2C1` [Example 18, 4-(3-chlorophenyl)-5,7-dihydro-6H-pyrrolo[3,4-b]pyridine-6-carbonitrile] as the compound, how does the IC50 (read-out: IC50 range) read?
A: 1 to 10 µM

Q: With `CC(=O)N1CCCC(C(=O)Nc2cc3c(c(-c4ccccc4)c2)CN(C#N)C3)C1` (stereo not drawn) [Example 45, 1-acetyl-N-(2-cyano-7-phenylisoindolin-5-yl)piperidine-3-carboxamide] as the compound, how does the IC50 (read-out: IC50 range) read?
A: 1 to 10 µM

Q: For `CCN(CC)c1cc2c(c(-c3ccc(C#N)cc3)c1)CN(C#N)C2` [Example 279, 4-(4-Cyanophenyl)-6-(diethylamino)isoindoline-2-carbonitrile], which IC50 (read-out: IC50 range) is on record?
A: 1 to 10 µM

Q: Which IC50 (read-out: IC50 range) does the source give for `CN1CCC[C@@H](C(=O)Nc2cc3c(c(-c4ccncc4)c2)CN(C#N)C3)C1` [Example 163, (R)-N-(2-cyano-7-(pyridin-4-yl)isoindolin-5-yl)-1-methylpiperidine-3-carboxamide] here?
A: 1 to 10 µM

Q: How did the IC50 (read-out: IC50 range) turn out when `CN(C)C(=O)CCC(=O)Nc1cc2c(c(-c3ccccc3)c1)CN(C#N)C2` [Example 46, N1-(2-cyano-7-phenylisoindolin-5-yl)-N4,N4-dimethylsuccinamide] was run?
A: 1 to 10 µM

Q: `N#CN1Cc2nc(Cl)nc(-c3ccc(F)cc3)c2C1` [Example 149, 2-chloro-4-(4-fluorophenyl)-5,7-dihydro-6H-pyrrolo[3,4-d]pyrimidine-6-carbonitrile] was tested. Which IC50 (read-out: IC50 range) did it give?
A: 10 to 30 µM

Q: How did the IC50 (read-out: IC50 range) turn out when `N#Cc1ccc(-c2cc(NCC3CCOCC3)cc3c2CN(C#N)C3)cc1` [Example 275, 4-(4-cyanophenyl)-6-(((tetrahydro-2H-pyran-4-yl)methyl)amino)isoindoline-2-carbonitrile] was run?
A: < 1 µM
